Assay results from ChEMBL document CHEMBL1146414, “New Agelasine Compound from the Marine Sponge Agelas mauritiana as an Antifouling Substance against Macroalgae” (J Nat Prod, 1997).
The source made the active and inactive calls. No cut-off for these calls is given here.

How the values were obtained:
Ulva [1] = test: Antifouling activity against Ulva conglobata spores assessed as germination and attachment rate at 2.5 to 10.0 ppm; assay type: functional, organism-based
Ulva [2] = test: Toxicity against Ulva conglobata spores at 50 ppm; assay type: organism-based; details: in vivo
[3] = test system: Anagnostidinema amphibium; test: Antimicroalgal activity against Oscillatoria amphibia at 1.0 to 2.5 ppm; assay type: functional, organism-based
Skeletonema costatum = test: Antimicroalgal activity against Skeletonema costatum at 1.0 to 2.5 ppm; assay type: functional, organism-based
Prorocentrum micans = test: Antimicroalgal activity against Prorocentrum micans at 1.0 to 2.5 ppm; assay type: functional, organism-based
Brachiomonas submarina = test: Antimicroalgal activity against Brachiomonas submarina at 1.0 to 2.5 ppm; assay type: functional, organism-based
Staphylococcus aureus = test: Antibacterial activity against Staphylococcus aureus; assay type: functional, organism-based
Salinivibrio costicola = test: Antibacterial activity against sVibrio costicola; assay type: functional, organism-based
Escherichia coli = test: Antibacterial activity against Escherichia coli; assay type: functional, organism-based
Bacillus subtilis = test: Antibacterial activity against Bacillus subtilis; assay type: functional, organism-based

In the case of `C/C(=C\C[n+]1cn(C)c2ncnc(N)c21)CC[C@@]1(C)C2=CCCC(C)(C)[C@@H]2CC[C@@H]1C.[Cl-]`, the Activity (Ulva [1]) is reported as “Active”, the Activity (Ulva [2]) is reported as “Toxic” and the Activity [3] is reported as “Active”. For the same compound, the Activity (Skeletonema costatum) was “Active”, the Activity (Prorocentrum micans) was “Active” and the Activity (Brachiomonas submarina) was “Active”. The Activity (Staphylococcus aureus) was “inactive”, the Activity (Salinivibrio costicola) was “inactive” and the Activity (Escherichia coli) was “inactive”. The Activity (Bacillus subtilis) was “inactive”.
